# Assay results reported in ChEMBL document CHEMBL1138054, “Synthesis, molecular characterization, and biological activity of novel synthetic derivatives of chromen-4-one in human cancer cells” (J Med Chem, 2006).
# Columns and labels:
# PC-3 = test: Antiproliferative activity against human PC3 cell line by MTT assay; format: functional, cell-based
# BXPC-3 = test: Antiproliferative activity against human BxPC3 cell line by MTT assay; format: functional, cell-based
# BT-20 = test: Antiproliferative activity against human BT20 cell line by MTT assay; format: functional, cell-based
# COLO357 = test: Antiproliferative activity against human COLO357 cell line by MTT assay; format: functional, cell-based
# [1] = biological target: RAC-alpha serine/threonine-protein kinase (Homo sapiens, UniProt P31749); test: Inhibition of Akt by fluorescence polarization assay
# Chain of RAC-alpha serine/threonine-protein kinase (P31749 whole entry): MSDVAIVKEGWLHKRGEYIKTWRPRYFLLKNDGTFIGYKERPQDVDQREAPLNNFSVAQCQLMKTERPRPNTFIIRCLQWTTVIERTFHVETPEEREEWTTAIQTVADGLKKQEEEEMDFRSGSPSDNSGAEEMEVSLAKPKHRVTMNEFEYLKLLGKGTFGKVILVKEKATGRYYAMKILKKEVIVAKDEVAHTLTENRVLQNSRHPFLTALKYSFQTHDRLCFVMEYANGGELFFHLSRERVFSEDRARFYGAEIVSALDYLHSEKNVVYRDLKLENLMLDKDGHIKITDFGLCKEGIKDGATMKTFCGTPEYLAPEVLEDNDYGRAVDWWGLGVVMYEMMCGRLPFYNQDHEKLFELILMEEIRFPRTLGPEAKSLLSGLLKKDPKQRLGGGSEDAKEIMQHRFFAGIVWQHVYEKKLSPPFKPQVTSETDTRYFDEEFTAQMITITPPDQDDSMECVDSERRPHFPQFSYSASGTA
structure (smiles),measurement,setting,value
O=c1c(-c2ccc(O)cc2)coc2cc(O)cc(O)c12 [GENISTEIN],IC50,PC-3,50 µM
same,IC50,BXPC-3,30 µM
same,IC50,BT-20,46 µM
same,IC50,COLO357,50 µM
same,IC50,[1],> 70 µM
